From patent US20230054563A1, “COMPOSITION AND METHODS OF MANUFACTURE” (Phoenix Eagle Company Pty Ltd, priority 2019, published 2023)
“Also recorded” adds a separate entry of the source.

Columns and labels:
[1] = tested on: active serine protease in OPAL B filtrate; experiment: Serine protease reactivity probe, SDS PAGE western blotting of OPAL B filtrate; assay type: biochemical, Carica papaya
Excerpt: To establish which of the different bands corresponded to a proteolytically active form of subtilase in the OPAL B filtrate, we used a reactivity probe, which specifically labels active serine proteases via a fluorosulfonate group linked to biotin. This reactivity probe can then be visualized on a regular SDS PAGE gel via western blotting technique, using streptavidin-conjugated enzymes such as alkaline phosphatase. Using this technique allowed the visualization of the active serine protease band inhibited by AEBSF treatment at around 50 kDa as shown in FIG. 11.

[2] = tested on: proteolytic activity of OPAL B filtrate (cysteine and serine proteases); experiment: Effect of protease inhibitors on L-BApNA proteolytic activity of OPAL B filtrate; assay type: biochemical, Carica papaya; conditions: inhibitor added to OPAL B filtrate
Description: (§1) A 1.5 mM stock solution of L-BApNA (B-3133 sigma) was prepared by dissolving 63 mg of L-BApNA in 1.5 ml dimethyl sulfoxide (DMSO), and then made up to 100 ml with water. Hydrolysis of the L-BApNA at the bond between the arginine and the p-nitroaniline moieties releases the chromophore p-nitroaniline, which can be detected by spectroscopy at an absorbance of 410 nm in International Units (IU). IU is defined as the amount of enzyme that causes an increase in absorbance of 0.01 units/min under excess substrate conditions (zero order kinetics). Solids specific activity is expressed in IU/mg, while in the case of liquid formulations, the activity is expressed in IU/mL.
(§2) We therefore previously concluded that the protease activity in OPAL A is essentially due only to the presence of active cysteine proteases. To determine the effect of omitting the heat treatment step, the protease activity in both OPAL A and OPAL B filtrates was tested using an L-BApNA assay. After 10 minutes, E-64 inhibitor was added.
To better understand the non-thiol dependent or non-cysteine proteases in the OPAL B filtrate, enzymatic assays were carried out initially using a Protease Inhibitor Cocktail (PIC) (sigma P2714), containing all the essential protease inhibitors (see Table 3).

[3] = tested on: cysteine protease(s) and serine protease(s) in OPAL B filtrate; experiment: Overlay zymography of OPAL B filtrate with L-BApNA membrane, with or without inhibitors; assay type: biochemical, Carica papaya; conditions: inhibitor on nitrocellulose membrane; upper band cysteine, lower band serine protease(s)
Description: Overlay-zymography was carried out according to the procedure in Vinokurov et al. (2005) with some modifications (FIG. 1). Briefly, a nitrocellulose membrane was soaked in a 1.2 mg/mL L-BApNA solution in water. The membrane was subsequently left to air dry for 5 minutes and then laid on top of the native PAGE gel after running the samples through, which were slightly soaked in their respective running buffers. Two additional experiments were carried out in which membranes were soaked in […] R-alanine, 0.14 M acetic acid, pH 4.3, with either 10 mM DTT or 25 mM cysteine. All zymographies were then incubated in a closed chamber at 37° C. for 30-60 min. The membrane was removed and again left to dry for 5 minutes and the p-nitroaniline was visualized by diazotization.
Diazotization was performed by following the protocol detailed in Hosseininaveh et al. (2009). […]
OPAL B filtrate appears to be a complex mixture of many proteins. Therefore, to individually visualize the protease activities that were detected by spectrophotometry assays, we used a technique called overlay zymography. […]

[4] = tested on: cysteine protease activity of OPAL A; experiment: Effect of E-64 on protease activity of OPAL A; assay type: biochemical, Carica papaya; conditions: previously established, unpublished data
Description: as §2

[5] = L-BApNA proteolytic activity assay (A410); assay type: biochemical
Description: as §1
To determine the optimal substrate concentration to maintain zero order kinetics throughout experiments, a series of titration runs were carried out with a range of substrate concentrations. The minimum concentration thus found is […] or 1:6 dilution of the stock 1.5 mM solution. […] Phosphate buffer at pH 6 was used in the L-BApNA assays because it gave the highest enzymatic activity reading compared to other buffers.
Hydrolysis of L-BApNA in the presence of protease, at the bond between the arginine and p-nitroaniline moieties, releases the chromophore p-nitroaniline, which can then be detected by spectroscopy at a wavelength of 410 nm. […]

Molecule: NCCc1ccc(S(=O)(=O)F)cc1 [AEBSF]
- effect on active serine protease band at around 50 kDa labelled by reactivity probe [1]: inhibited
- inhibition of L-BApNA proteolytic activity of OPAL B filtrate [2]: able to halt proteolytic activity
- inhibition of zymography bands of OPAL B [3]: inhibition of lower band

Molecule: CC(C)C[C@H](NC(=O)[C@H]1C[C@@H]1C(=O)O)C(=O)NCCCCNC(=N)N [E-64, (1S,2S)-2-(((S)-1-((4-Guanidinobutyl)amino)-4-methyl-1-oxopentan-2-yl)carbamoyl) cyclopropane carboxylic acid]
- inhibition of L-BApNA proteolytic activity of OPAL B filtrate [2]: did not result in complete inhibition of activity; also recorded: able to halt proteolytic activity
- inhibition of cysteine protease activity of OPAL A [4]: essentially abolished
- inhibition of zymography bands of OPAL B [3]: complete inhibition of upper band

B1: pure latex papain: Pure latex papain, reference for specific L-BApNA activity (protein, UniProt P00784 134-345, looked up)
Papain: IPEYVDWRQKGAVTPVKNQGSCGSCWAFSAVVTIEGIIKIRTGNLNEYSEQELLDCDRRSYGCNGGYPWSALQLVAQYGIHYRNTYPYEGVQRYCRSREKGPYAAKTDGVRQVQPYNEGALLYSIANQPVSVVLEAAGKDFQLYRGGIFVGPCGNKVDHAVAAVGYGPNYILIKNSWGTGWGENGYIRIKRGTGNSYGVCGLYTSSFYPVKN
- activity of pure latex papain [5]: around 10 IU/mg
